Values joined by “and” are separate entries in the source; they are usually repeats but may differ in a detail not shown here. Equal values may be shown once. Inconclusive results and toxic doses are left out.
Tested on: L1210 leukemia ip in BDF1 mice, survival T/C
Experiment: NCI In Vivo Anticancer Drug Screen. Data for tumor model L1210 Leukemia (intraperitoneal) in B6D2F1 (BDF1) mice
Conditions: endpoint: mean survival time, higher = longer survival
Summary of the method: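 Value reflects the ratio of survival in compound-treated mice to survival in vehicle-treated controls, with both groups carrying the same transplanted tumor.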

[1] = dose: 10.0 mg/kg/injection, schedule: Q01DX009 (ip), vehicle: saline

## O=C1C(Cl)=C(N2CC2)C(=O)C(Cl)=C1N1CC1
dose: 0.31 mg/kg/injection, schedule: Q01DX009 (ip), vehicle: alcohol
  T/C: 106 % of control
dose: 0.62 mg/kg/injection, schedule: Q01DX009 (ip), vehicle: alcohol
  T/C: 112 % of control
dose: 1.25 mg/kg/injection, schedule: Q01DX009 (ip), vehicle: alcohol
  T/C: 106 % of control
dose: 1.25 mg/kg/injection, schedule: Q01DX009 (ip), vehicle: saline
  T/C: 113 % of control
dose: 2.5 mg/kg/injection, schedule: Q01DX009 (ip), vehicle: alcohol
  T/C: 112 % of control
dose: 5.0 mg/kg/injection, schedule: Q01DX009 (ip), vehicle: alcohol
  T/C: 118 % of control
[1]
  T/C: 114 % of control

## CCOC(=O)c1ccc(NC(=O)Nc2cccc(F)c2)cc1
dose: 100.0 mg/kg/injection, schedule: Q01DX009 (ip), vehicle: Klucel (hydroxypropylcellulose) (HPC)
  T/C: 101 % of control
dose: 200.0 mg/kg/injection, schedule: Q01DX009 (ip), vehicle: Klucel (hydroxypropylcellulose) (HPC)
  T/C: 100 % of control

## Cc1ccc(NC(=O)N(CCO)C2CCCCC2)c([N+](=O)[O-])c1
dose: 100.0 mg/kg/injection, schedule: Q04DX003 (ip), vehicle: Klucel (hydroxypropylcellulose) (HPC)
  T/C: 87 % of control
dose: 200.0 mg/kg/injection, schedule: Q04DX003 (ip), vehicle: Klucel (hydroxypropylcellulose) (HPC)
  T/C: 98 % of control
dose: 400.0 mg/kg/injection, schedule: Q04DX003 (ip), vehicle: Klucel (hydroxypropylcellulose) (HPC)
  T/C: 96 % of control

## O=NN(CCCl)C(=O)Nc1ccc(CCO)cc1
dose: 0.25 mg/kg/injection, schedule: Q01DX009 (ip), vehicle: saline
  T/C: 112 % of control
dose: 0.38 mg/kg/injection, schedule: Q01DX009 (ip), vehicle: saline
  T/C: 114 % of control
dose: 0.59 mg/kg/injection, schedule: Q01DX009 (ip), vehicle: saline
  T/C: 164 % of control
dose: 0.89 mg/kg/injection, schedule: Q01DX009 (ip), vehicle: saline
  T/C: 205 % of control
dose: 7.0 mg/kg/injection, schedule: Q01DX009 (ip), vehicle: saline
  T/C: 202 % of control
[1]
  T/C: 109 % of control
dose: 78.0 mg/kg/injection, schedule: Q01DX001 (ip), vehicle: other
  T/C: 185 % of control
dose: 119.0 mg/kg/injection, schedule: Q01DX001 (ip), vehicle: other
  T/C: 201 % of control
dose: 178.0 mg/kg/injection, schedule: Q01DX001 (ip), vehicle: carboxymethylcellulose (CMC)
  T/C: 242 % of control
dose: 178.0 mg/kg/injection, schedule: Q01DX001 (ip), vehicle: other
  T/C: 160 % of control and 235 % of control
dose: 266.0 mg/kg/injection, schedule: Q01DX001 (ip), vehicle: carboxymethylcellulose (CMC)
  T/C: 226 % of control
dose: 266.0 mg/kg/injection, schedule: Q01DX001 (ip), vehicle: other
  T/C: 193 % of control
dose: 400.0 mg/kg/injection, schedule: Q01DX001 (ip), vehicle: carboxymethylcellulose (CMC)
  T/C: 276 % of control
dose: 400.0 mg/kg/injection, schedule: Q01DX001 (ip), vehicle: other
  T/C: 182 % of control
dose: 600.0 mg/kg/injection, schedule: Q01DX001 (ip), vehicle: carboxymethylcellulose (CMC)
  T/C: 244 % of control

Source: PubChem BioAssay AID248 (DTP/NCI, 2004)
